PMC12142043, “Cell-based high-content approach for SARS-CoV-2 neutralization identifies unique monoclonal antibodies and PI3K pathway inhibitors” (Frontiers in Cell and Developmental Biology, 2025)
Read-outs that look alike come from different tables or passages of the source.

Test system: SARS-CoV-2 (USA-WA1/2020) in Calu-3 cells
Format: cell-based
[1] = high dose (10 µM), Calu-3, 48 h
[2] = low dose (100 nM), Calu-3, 48 h

Row | Structure (SMILES) | dsRNA signal, AU High [1] | dsRNA signal, AU Low [2] | dsRNA signal, AU High | dsRNA signal, AU Low
1 | COc1cccc(-c2cc(=O)c3ccccc3o2)c1N [PD98059] | 33353.3 AU | 27955.5 AU |  | 
2 | COc1cc2ncnc(Nc3cccc(Br)c3)c2cc1OC.Cl [PD153035 hydrochloride] | 1669.4 AU | 28866.3 AU |  | 
3 | O=C(NOCC1CC1)c1ccc(F)c(F)c1Nc1ccc(I)cc1Cl [PD184352 (CI-1040)] | 0.0 AU | 41067.4 AU |  | 
4 | O=C(NOCC(O)CO)c1cc(Br)c(F)c(F)c1Nc1ccc(I)cc1F (stereo not shown) [PD318088] | 9157.7 AU | 11553.5 AU |  | 
5 | O=C(NOC[C@H](O)CO)c1ccc(F)c(F)c1Nc1ccc(I)cc1F [PD0325901] | 5022.8 AU | 48059.9 AU |  | 
6 | O=[N+]([O-])c1ccc(-c2nc(-c3ccncc3)c(-c3ccc(F)cc3)[nH]2)cc1 [PD 169316] | 4123.0 AU | 13218.6 AU |  | 
7 | CCN(CC)CCCCNc1ncc2cc(-c3cc(OC)cc(OC)c3)c(NC(=O)NC(C)(C)C)nc2n1 [PD 173074] | 6568.6 AU | 3359.6 AU |  | 
8 | Cc1cc(CS(=O)(=O)c2ccccc2)cc(OCc2ccc(CN3CCC[C@@H]3CO)cc2)c1 [PF-543] | 28127.6 AU | 66805.4 AU |  | 
9 | Cn1cc(-c2[nH]c3cc(NC(=O)[C@H](N)C4CCCCC4)cc4c3c2C=NNC4=O)cn1 [PF-477736] | 45938.3 AU | 24364.8 AU |  | 
10 | CN(c1ncccc1CNc1nc(Nc2ccc3c(c2)CC(=O)N3)ncc1C(F)(F)F)S(C)(=O)=O [PF-562271] | 0.0 AU | 690.0 AU |  | 
11 | Nc1nccc(-c2c(-c3ccc(F)cc3)ncn2C2CCCCC2)n1 [PF-670462] | 1350.7 AU | 18716.0 AU |  | 
12 | OCCn1cc(-c2cnc3nnn(Cc4ccc5ncccc5c4)c3n2)cn1 [PF-04217903] | 9610.7 AU | 2049.9 AU |  | 
13 | N#Cc1cccc(-c2c[nH]c3ncnc(N4CCOCC4)c23)c1 [PF-06447475] | 53174.2 AU | 40604.3 AU |  | 
14 | CNC(=O)c1ccc(C)c(-n2c(C)cc(OCc3ccc(F)cc3F)c(Br)c2=O)c1 [PH-797804] | 733.9 AU | 57938.0 AU |  | 
15 | Cc1[nH]c(/C=C2\C(=O)Nc3ccc(S(=O)(=O)Cc4c(Cl)cccc4Cl)cc32)c(C)c1C(=O)N1CCC[C@@H]1CN1CCCC1 [PHA-665752] | 34815.2 AU | 11571.8 AU |  | 
16 | Oc1cccc(-c2nc(N3CCOCC3)c3oc4ncccc4c3n2)c1 [PI-103] | 0.0 AU | 40731.1 AU |  | 
17 | Fc1ccc2[nH]ccc2c1-c1nc(N2CCOCC2)c2sc(CN3CCN(CC4CC4)CC3)cc2n1 [PI-3065] | 625.6 AU | 44145.1 AU |  | 
18 | Cc1ccc([N+](=O)[O-])cc1S(=O)(=O)N(C)/N=C/c1cnc2ccc(Br)cn12 [PIK-75] | 6934.4 AU | 3754.5 AU |  | 
19 | FC(F)(F)c1ccc(CNc2ccc(Cc3c[nH]c4ncccc34)cn2)cc1 [PLX647] | 24285.0 AU | 52941.2 AU |  | 
20 | CC(C)n1nc(-c2cc3cc(O)ccc3[nH]2)c2c(N)ncnc21 [PP242] | 7321.2 AU | 32614.7 AU |  | 
21 | CC(C)(C)n1nc(-c2ccc(Cl)cc2)c2c(N)ncnc21 [PP 2 (AG 1879)] | 53589.5 AU | 40414.9 AU |  | 
22 | CCOC(=O)c1ccc(N2NC(=O)/C(=C/c3ccc([N+](=O)[O-])o3)C2=O)cc1 [PYR-41] | 41809.3 AU | 6659.6 AU |  | 
23 | COc1ccc(COc2cc3oc(=O)c4cc(C(C)O)ccc4c3cc2OC)cc1 (stereo not shown) [Palomid 529] | 5778.6 AU | 4358.2 AU |  | 
24 | Cc1ccc(Nc2nccc(N(C)c3ccc4c(C)n(C)nc4c3)n2)cc1S(N)(=O)=O [Pazopanib (GW-786034)] | 41143.8 AU | 22671.3 AU |  | 

Row | Structure (SMILES) | dsRNA signal, AU High [1] | dsRNA signal, AU Low [2] | dsRNA signal, AU High | dsRNA signal, AU Low
25 | FC(F)(F)c1ccc(CNc2ccc(Cc3c[nH]c4ncc(Cl)cc34)cn2)cn1 [Pexidartinib (PLX3397)] | 64762.3 AU | 40586.0 AU |  | 
26 | Oc1cc(O)cc(/C=C/c2ccc(O)c(O)c2)c1 [Piceatannol] | 12025.1 AU | 48262.2 AU |  | 
27 | O=C(NC[C@H](O)CO)c1ccncc1Nc1ccc(I)cc1F [Pimasertib (AS-703026)] | 11387.3 AU | 3667.2 AU |  | 
28 | O=C(O)C[C@H](O)C[C@H](O)/C=C/c1c(C2CC2)nc2ccccc2c1-c1ccc(F)cc1 [Pitavastatin Calcium] | 16024.1 AU | 23195.0 AU |  | 
29 | O=C(O)C[C@H](O)C[C@H](O)/C=C/c1c(C2CC2)nc2ccccc2c1-c1ccc(F)cc1 [Pitavastatin] | 8150.8 AU | 10215.5 AU |  | 
30 | CC1=CC(=O)C(C(C)C)=C/C1=N/OC(=O)c1ccccc1C [Poloxin] | 3268.7 AU | 59035.4 AU |  | 
31 | C=CC(=O)N1CCC(Oc2cc3c(Nc4ccc(Cl)c(Cl)c4F)ncnc3cc2OC)CC1 [Poziotinib] | 19439.7 AU | 63934.7 AU |  | 
32 | CC(C)[C@H](CO)Nc1nc(Nc2cccc(Cl)c2)c2ncn(C(C)C)c2n1 [Purvalanol A] | 51443.1 AU | 865.0 AU |  | 
33 | CC(C)[C@H](CO)Nc1nc(Nc2ccc(C(=O)O)c(Cl)c2)c2ncn(C(C)C)c2n1 [Purvalanol B] | 4137.6 AU | 7805.6 AU |  | 
34 | O=c1c(O)c(-c2ccc(O)c(O)c2)oc2cc(O)cc(O)c12 [Quercetin dihydrate] | 25411.6 AU | 6435.1 AU |  | 
35 | CC(C)(C)c1cc(NC(=O)Nc2ccc(-c3cn4c(n3)sc3cc(OCCN5CCOCC5)ccc34)cc2)no1 [Quizartinib (AC220)] | 4499.9 AU | 17036.5 AU |  | 
36 | COc1cc(Nc2ncc(F)c(Nc3ccc4c(n3)NC(=O)C(C)(C)O4)n2)cc(OC)c1OC [R406 (free base)] | 42129.8 AU | 55638.2 AU |  | 
37 | COc1ccc(/C=C(\C#N)c2cccnc2)cc1OC [RG 13022] | 36154.5 AU | 2414.3 AU |  | 
38 | O=C(NCc1cccc(O)c1)Nc1nc(-c2ccncc2)cs1 [RKI-1447] | 1722.0 AU | 7250.9 AU |  | 
39 | CN1CCN(c2ccc(Nc3cc(-c4cccc(-n5ccc6cc(C7CC7)cc(F)c6c5=O)c4CO)cn(C)c3=O)nc2)CC1 [RN486] | 3432.0 AU | 25024.9 AU |  | 
40 | Cc1cn(-c2cc(NC(=O)c3ccc(C)c(Nc4nccc(-c5cnccn5)n4)c3)cc(C(F)(F)F)c2)cn1 [Radotinib(IY-5511)] | 11726.8 AU | 29413.0 AU |  | 
41 | CO[C@H]1C[C@@H]2CC[C@@H](C)[C@@](O)(O2)C(=O)C(=O)N2CCCC[C@H]2C(=O)O[C@H]([C@H](C)C[C@@H]2CC[C@@H](O)[C@H](OC)C2)CC(=O)[C@H](C)/C=C(\C)[C@@H](O)[C@@H](OC)C(=O)[C@H](C)C[C@H](C)/C=C/C=C/C=C/1C [Rapamycin (Sirolimus)] | 1745.1 AU | 58744.6 AU |  | 
42 | CNC(=O)c1cc(Oc2ccc(NC(=O)Nc3ccc(Cl)c(C(F)(F)F)c3)c(F)c2)ccn1.Cl [Regorafenib hydrochloride] | 724.9 AU | 22021.0 AU |  | 
43 | CNC(=O)c1cc(Oc2ccc(NC(=O)Nc3ccc(Cl)c(C(F)(F)F)c3)c(F)c2)ccn1 [Regorafenib] | 93.0 AU | 63322.3 AU |  | 
44 | Oc1ccc(/C=C/c2cc(O)cc(O)c2)cc1 [Resveratrol] | 13503.5 AU | 6902.6 AU |  | 
45 | c1nc2nc(Nc3ccc(N4CCOCC4)cc3)nc(NC3CCCCC3)c2[nH]1 [Reversine] |  |  | 27234.6 | 49415.3
46 | CO[C@H]1C[C@@H]2CC[C@@H](C)[C@@](O)(O2)C(=O)C(=O)N2CCCC[C@H]2C(=O)O[C@H]([C@H](C)C[C@@H]2CC[C@@H](OP(C)(C)=O)[C@H](OC)C2)CC(=O)[C@H](C)/C=C(\C)[C@@H](O)[C@@H](OC)C(=O)[C@H](C)C[C@H](C)/C=C/C=C/C=C/1C [Ridaforolimus (Deforolimus, MK-8669)] | 23072.2 AU | 31512.5 AU |  | 
47 | COc1cc(OC)c(/C=C/S(=O)(=O)Cc2ccc(OC)c(NCC(=O)O)c2)c(OC)c1 [Rigosertib (ON-01910,Estybon)] | 14175.0 AU | 4849.9 AU |  | 
